Measurements reported in article PMC8346996, “Antiradical Properties of N-Oxide Surfactants—Two in One” (International Journal of Molecular Sciences, 2021).
Values after ≈ are worked out from the molar mass of the structure shown. Like-named read-outs stand apart in the source and are kept apart here. Marks after values point to notes of the source that are not given here.

Key:
[1] = design: method as in PMID 23098238; details: cited from earlier work
[2] = design: method as in PMID 23098238; details: cited from earlier work; remark: listed apart in the source
[3] = system: normal human keratinocytes (HaCaT); test: MTT cell viability assay, HaCaT; assay type: cell-based; details: Homo sapiens, HaCaT, MTT
Description: (§1) HaCaT (immortalized human keratinocytes from histologically normal skin) cell line was obtained from the CLS Cell Lines Service GmbH (Eppelheim, Germany). HGFs (human gingival fibroblasts) derive from primary cell culture. The cells were isolated according to the procedure described by Saczko et al. and patented by Saczko et al.. Cells were grown in plastic cell culture flasks in Dulbecco’s Modified Eagle’s Medium, supplemented with fetal bovine serum (FBS, Lonza, Morrisville, NC, USA), with 100 IU/mL penicillin, 50 mg streptomycin, and 125 μg amphotericin B (Sigma). The cells were maintained in a humidified atmosphere at 37 °C and 5% CO2. The cells were regularly maintained by systematic passaging. For experimental purposes, the cells were removed by trypsinization (0.25% Trypsin-EDTA, Sigma).
(§2) MTT (Sigma) test was used to determine the viability of HaCaT and HGFs cells. The MTT assay was used to test mitochondrial metabolic functioning. Cells were seeded on flat bottom 96-well tissue culture plates at a density of 10^4 cells/well and allowed to grow in a CO2 incubator at 37 °C overnight. In the case of these studies, the culture medium was removed, surfactant solutions were added, and the cells were exposed for 24 and 48 h to compounds at doses ranging from 50 to 2000 μg/mL. After incubation, MTT assay was applied according to the manufacturer protocol. The absorbance was measured at 570 nm using a multiwell plate reader (EnSpire Multimode Reader, Perkin Elmer). Each experiment was performed in a few independent repetitions. Mean values and standard deviations of all results were calculated. The final results were expressed as the percentage of mitochondrial function relative to untreated control cells.

[4] = MTT cell viability assay, HaCaT; assay type: cell-based, human; details: human, HaCaT cells (immortalized human keratinocytes), evaluated for CMC
Description: as §1, §2

[5] = DPPH• scavenging kinetics by UV-vis, pseudo-first-order conditions
Description: After confirming that the absorption maximum at 517 nm of DPPH• is outside the surfactant’s absorption range, the rate of the DPPH•-scavenging reaction of the N-oxides was measured by monitoring the decrease in absorbance of this maximum. To ensure that the decay of DPPH• obeyed pseudo-first-order kinetics, the concentration of surfactants was at least a 54-fold excess of the DPPH• concentration. As explained in SI, the calculated pseudo-first-order rate constants, kobs, increased linearly with the concentration of Cn(DAPANO)2 and CnPDA (shown in SI). The second-order rate constants k2 for the reaction between the N-oxides and DPPH• were determined from the slopes of the linear plots of kobs vs. the concentration of the surfactants and are given in Figure 6.
The measurements were done under deaerated conditions at 298 K in ethanol solutions (2 mL in a 10 mm quartz cuvette) containing DPPH^• (C = 2.2 × 10^−4 M) and a surfactant at each of five different concentrations, namely C1 = 0.12 M, C2 = 0.09 M, C3 = 0.06 M, C4 = 0.03 M, and C5 = 0.012 M. UV−vis spectral changes associated with the undergoing reaction were monitored at 516 nm, using a Varian Cary 50Conc UV−visible Spectrophotometer. The following equations of the calibration curve were used to calculate DPPH^• concentrations in the reaction system: Abs = 4.0189 × C[mM] + 0.00813 (R^2 = 0.9998). The rate of DPPH^• scavenging reaction was determined using pseudo-first-order kinetics (the concentration of CnPDA or Cn(DAPANO)2 was maintained at more than 54-fold excess of the radical concentration); further details are given as Supporting Information.

[6] = Radical scavenging monitored by EPR spectroscopy, GO•; details: after 60 min of reaction; C/CMC = 100
Description: (§3) We began with an attempt to determine if the N-oxide surfactants can participate in the radical scavenging process when micelles are well-formed. Thus, the reaction mixtures containing a surfactant at C/CMC = 100, which is a typical concentration found in formulations, and GO• or DPPH• at 2 mM were prepared along with the control samples and monitored over time (solutions of DPPH• and GO• without surfactants).
(§4) The scavenging capacity of the surfactants was judged quantitatively by measuring the percentage of remaining GO• and DPPH• after a fixed reaction time. The relative concentration of GO• and DPPH• was calculated from Equation (1):(1) remaining radical%=It/I0×100% where I0 and It correspond to the EPR signal integral intensity of a radical in the absence and presence of the N-oxide surfactants after a fixed time, respectively.
(§5) The antiradical properties were studied by EPR using a Bruker ELEXYS E500 spectrometer equipped with an NMR gaussmeter and frequency counter. A microwave power of 10 mW, a modulation frequency of 100 kHz, a modulation amplitude of 1 G, a time constant of 82 ms, and a conversion time of 164 ms were adopted. The antiradical properties were evaluated against two model radicals: 2,2-diphenyl-1-picrylhydrazyl (DPPH•) and galvinoxyl (GO•). […]

[7] = MTT cell viability assay, HGFs; assay type: cell-based, human; details: human, primary human gingival fibroblasts (HGFs), evaluated for CMC
Description: as §1, §2

[8] = system: primary fibroblasts (HGFs); test: MTT cell viability assay, HGFs; assay type: cell-based, human; details: Homo sapiens, Fibroblast, MTT
Description: as §1, §2

[9] = Radical scavenging monitored by EPR spectroscopy, DPPH•; details: after 60 min of reaction; C/CMC = 100
Description: as §3, §4, §5

In the case of `CCCCCCCCCCCC(=O)N(CCC[N+](C)(C)[O-])CCC[N+](C)(C)[O-]` [C12(DAPANO)2], the “RH DLS” value [1] is given as 2.04 ^a nm, the CMC [2] is given as 5.5·10^−3 a M and the IC50 ([3]; 24 h incubation, read-out: IC50 HaCaT 24 h) is given as 95 µg/mL (≈ 237 µM). The IC50 ([3]; 48 h incubation, read-out: IC50 HaCaT 48 h) was 94 µg/mL (≈ 234 µM), the viability at 24 h ([4]; 24 h) was 9.2% and the viability at 48 h ([4]; 48 h) was 16.4%. The “second-order rate constant k2 for the reaction with DPPH•” value ([5]; ethanol, 298 K, deaerated, DPPH• 2.2 × 10^−4 M, surfactant 0.012-0.12 M) was 0.00108 M⁻¹ s⁻¹, the “k2 higher in comparison with the CnPDA homolog” value ([5]; reaction with DPPH•) was 19% and the “reduced the number of GO• by” value [6] was 88%. It also gave a viability at 24 h ([7]; 24 h, read-out: Viability 24 h HGF’s) of 17.1%, a viability at 48 h ([7]; 48 h, read-out: Viability 48 h HGF’s) of 10.8% and an IC50 ([8]; 24 h incubation, read-out: IC50 HGFs 24 h) of 27.9 µg/mL (≈ 69.5 µM). For the same molecule, the IC50 ([8]; 48 h incubation, read-out: IC50 HGFs 48 h) was 1.2 µg/mL (≈ 2.99 µM) and the “reduced the number of DPPH• by” value [9] was 86%.
